Reference: patent publication US20220153746A1, “NITROGEN OXIDE-DONATING PDE-5 AND/OR PDE-6 INHIBITOR COMPOUNDS, AND USES THEREOF” (ILDONG PHARMACEUTICAL CO., LTD., priority 2020, published 2022)
Like-named read-outs stand apart in the source and are kept apart here.

How the values were obtained:
human PDE-5A1 = human PDE-5A1 (Homo sapiens, UniProt O76074); test: Human PDE-5A1 inhibition assay (fluorescence polarization, FAM-cGMP); assay type: biochemical
human PDE-6C = human PDE-6C (Homo sapiens, UniProt P51160); test: Human PDE-6C inhibition assay (fluorescence polarization, FAM-cGMP); assay type: biochemical
Sequence of human PDE-6C (P51160 whole entry): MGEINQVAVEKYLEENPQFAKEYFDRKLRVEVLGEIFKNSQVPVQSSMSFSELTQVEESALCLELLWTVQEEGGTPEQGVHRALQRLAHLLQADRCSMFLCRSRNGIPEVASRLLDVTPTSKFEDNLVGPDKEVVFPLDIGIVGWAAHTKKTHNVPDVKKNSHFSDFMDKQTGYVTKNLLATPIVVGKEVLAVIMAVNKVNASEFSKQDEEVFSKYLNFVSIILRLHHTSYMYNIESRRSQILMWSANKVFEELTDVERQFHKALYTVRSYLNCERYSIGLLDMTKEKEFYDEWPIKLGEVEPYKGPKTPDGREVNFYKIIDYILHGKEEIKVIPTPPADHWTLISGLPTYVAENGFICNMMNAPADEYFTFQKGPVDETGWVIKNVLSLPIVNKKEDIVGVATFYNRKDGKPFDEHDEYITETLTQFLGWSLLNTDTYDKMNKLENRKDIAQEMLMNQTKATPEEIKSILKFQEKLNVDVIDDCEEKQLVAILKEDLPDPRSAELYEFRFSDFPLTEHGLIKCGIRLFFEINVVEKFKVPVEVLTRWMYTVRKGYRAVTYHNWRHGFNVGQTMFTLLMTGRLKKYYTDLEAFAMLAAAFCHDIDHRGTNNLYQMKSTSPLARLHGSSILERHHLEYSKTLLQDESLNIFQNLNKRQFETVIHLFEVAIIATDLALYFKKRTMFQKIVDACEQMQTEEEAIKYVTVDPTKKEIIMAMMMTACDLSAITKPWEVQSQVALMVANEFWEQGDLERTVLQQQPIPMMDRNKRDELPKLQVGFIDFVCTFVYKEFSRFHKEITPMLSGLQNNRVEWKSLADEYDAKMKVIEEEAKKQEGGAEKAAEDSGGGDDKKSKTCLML

IC50 (human PDE-5A1; read-out: IC50 (μM) PDE5A1) [µM] | IC50 (human PDE-6C; read-out: IC50 (μM) PDE6C) [µM] | Compound | IC50 (human PDE-5A1) [µM] | IC50 (human PDE-6C) [µM]
< 0.01 | < 0.01 | CCCc1nn(C)c2c(=O)[nH]c(-c3cc(S(=O)(=O)N4CC(N5CC(O[N+](=O)[O-])C5)C4)ccc3OCC)nc12 [Compound 39, 1′-((4-ethoxy-3-(1-methyl-7-oxo-3-propyl-6,7-dihydro-1H-pyrazolo[4,3-d]pyrimidin-5-yl)phenyl)sulfonyl)-[1,3′-biazetidin]-3-yl nitrate] | – | –
0.01 to 0.1 | < 0.01 | CCCc1nn(C)c2c(=O)[nH]c(-c3cc(S(=O)(=O)N4CC(N5CC(CO[N+](=O)[O-])C5)C4)ccc3OCC)nc12 [Compound 40, (1′-((4-ethoxy-3-(1-methyl-7-oxo-3-propyl-6,7-dihydro-1H-pyrazolo[4,3-d]pyrimidin-5-yl)phenyl)sulfonyl)-[1,3′-biazetidin]-3-yl)methyl nitrate] | – | –
< 0.01 | < 0.01 | CCCc1nn(C)c2c(=O)[nH]c(-c3cc(S(=O)(=O)N4CC(CCCOC(=O)CCCCCO[N+](=O)[O-])C4)ccc3OCC)nc12 [Compound 65, 3-(1-((4-ethoxy-3-(1-methyl-7-oxo-3-propyl-6,7-dihydro-1H-pyrazolo[4,3-d]pyrimidin-5-yl)phenyl)sulfonyl)azetidin-3-yl)propyl 6-(nitrooxy)hexanoate] | – | –
< 0.01 | < 0.01 | CCCc1nn(C)c2c(=O)[nH]c(-c3cc(S(=O)(=O)N4CC(NCCOC(=O)CCCCO[N+](=O)[O-])C4)ccc3OCC)nc12 [Compound 66, 2-((1-((4-ethoxy-3-(1-methyl-7-oxo-3-propyl-6,7-dihydro-1H-pyrazolo[4,3-d]pyrimidin-5-yl)phenyl)sulfonyl)azetidin-3-yl)amino)ethyl 5-(nitrooxy)pentanoate] | – | –
< 0.01 | < 0.01 | CCCc1nn(C)c2c(=O)[nH]c(-c3cc(S(=O)(=O)N4CC(N(C)CCOC(=O)CCCCCO[N+](=O)[O-])C4)ccc3OCC)nc12 [Compound 67, 2-((1-((4-ethoxy-3-(1-methyl-7-oxo-3-propyl-6,7-dihydro-1H-pyrazolo[4,3-d]pyrimidin-5-yl)phenyl)sulfonyl)azetidin-3-yl)(methyl)amino)ethyl 6-(nitrooxy)hexanoate] | – | –
– | – | CCCc1nn(C)c2c(=O)[nH]c(-c3cc(S(=O)(=O)N4CC(CCCOC(=O)CCCCC(CO[N+](=O)[O-])O[N+](=O)[O-])C4)ccc3OCC)nc12 (stereo not drawn) [Compound 68, 3-(1-((4-ethoxy-3-(1-methyl-7-oxo-3-propyl-6,7-dihydro-1H-pyrazolo[4,3-d]pyrimidin-5-yl)phenyl)sulfonyl)azetidin-3-yl)propyl 6,7-bis(nitrooxy)heptanoate] | 0.01 to 0.1 | < 0.01
– | – | CCCc1nn(C)c2c(=O)[nH]c(-c3cc(S(=O)(=O)N4CC(NCCOC(=O)CCCCC(CO[N+](=O)[O-])O[N+](=O)[O-])C4)ccc3OCC)nc12 (stereo not drawn) [Compound 69, 2-((1-((4-ethoxy-3-(1-methyl-7-oxo-3-propyl-6,7-dihydro-1H-pyrazolo[4,3-d]pyrimidin-5-yl)phenyl)sulfonyl)azetidin-3-yl)amino)ethyl 6,7-bis(nitrooxy)heptanoate] | < 0.01 | < 0.01
– | – | CCCc1nn(C)c2c(=O)[nH]c(-c3cc(S(=O)(=O)N4CC(N(C)CCOC(=O)CCCCC(CO[N+](=O)[O-])O[N+](=O)[O-])C4)ccc3OCC)nc12 (stereo not drawn) [Compound 70, 2-((1-((4-ethoxy-3-(1-methyl-7-oxo-3-propyl-6,7-dihydro-1H-pyrazolo[4,3-d]pyrimidin-5-yl)phenyl)sulfonyl)azetidin-3-yl)(methyl)amino)ethyl 6,7-bis(nitrooxy)heptanoate] | < 0.01 | < 0.01
< 0.01 | < 0.01 | CCCc1nn(C)c2c(=O)[nH]c(-c3cc(S(=O)(=O)N4CC(CCCOC(=O)CCCCO[N+](=O)[O-])C4)ccc3OCC)nc12 [Compound 71, 3-(1-((4-ethoxy-3-(1-methyl-7-oxo-3-propyl-6,7-dihydro-1H-pyrazolo[4,3-d]pyrimidin-5-yl)phenyl)sulfonyl)azetidin-3-yl)propyl 5-(nitrooxy)pentanoate] | – | –
